# Legend:
# [1] = set-up: method as in printed; conditions: high dose loperamide; ref not given; cited from earlier work
# [2] = biological target: T1, CES1 (Homo sapiens, UniProt P23141); assay: In vitro CES1 enzyme-based assay (4-NPA substrate); format: biochemical; conditions: even at 300μM
# T1 construct: purchased Sigma-Aldrich E0162
# T1 sequence (P23141 18-567): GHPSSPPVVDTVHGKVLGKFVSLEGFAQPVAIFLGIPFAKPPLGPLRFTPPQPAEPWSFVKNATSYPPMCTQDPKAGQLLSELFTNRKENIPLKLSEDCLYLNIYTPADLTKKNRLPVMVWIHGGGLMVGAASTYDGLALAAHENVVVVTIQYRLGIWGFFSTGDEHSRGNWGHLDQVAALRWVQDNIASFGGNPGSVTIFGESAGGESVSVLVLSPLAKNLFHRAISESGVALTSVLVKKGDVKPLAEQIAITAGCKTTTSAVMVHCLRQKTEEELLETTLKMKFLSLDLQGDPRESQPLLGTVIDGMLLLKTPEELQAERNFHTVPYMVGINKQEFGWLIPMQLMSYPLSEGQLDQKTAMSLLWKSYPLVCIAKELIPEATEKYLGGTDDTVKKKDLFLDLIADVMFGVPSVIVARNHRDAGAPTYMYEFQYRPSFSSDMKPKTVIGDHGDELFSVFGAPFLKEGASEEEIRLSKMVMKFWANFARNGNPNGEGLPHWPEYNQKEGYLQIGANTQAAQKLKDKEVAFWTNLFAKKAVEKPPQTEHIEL
# Method: (§1) The recombinant purified CES2 and CES1 enzymes, and 4-NPA were purchased from Sigma-Aldrich with product IDs E0412, E0162, and N8130, respectively. […] All compounds were dissolved in DMSO at 10mM. In the screening assay, the compounds were diluted in 50mM HEPES and the final compound concentration in the reaction system was adjusted to 50μM. […] The assays were conducted at 300μl total volume in 96-well plates. Reactions consisted of the following: 100μL 50mM HEPES with 20 units of enzyme, 10μL compound solution (various concentrations), 2μL 300mM 4-NAP, and 188μL 50mM HEPES, pH 7.4. The compound and 4-NAP solution were added into the plate first and then the reaction was initiated by the addition of enzyme solution. After 15 minutes incubation at 25°C, absorbance was measured using a microplate reader at 405nm in FLUOstar Omega Microplate Reader. The CES1/CES2 inhibitor compound bis-(4-nitrophenyl) phosphate (BNPP) was used as positive control in all the assays.
# [3] = biological target: T2, CES2 (Homo sapiens, UniProt O00748); assay: In vitro CES2 enzyme-based assay (4-NPA substrate); format: biochemical
# T2 construct: purchased Sigma-Aldrich E0412
# T2 sequence (O00748 27-559): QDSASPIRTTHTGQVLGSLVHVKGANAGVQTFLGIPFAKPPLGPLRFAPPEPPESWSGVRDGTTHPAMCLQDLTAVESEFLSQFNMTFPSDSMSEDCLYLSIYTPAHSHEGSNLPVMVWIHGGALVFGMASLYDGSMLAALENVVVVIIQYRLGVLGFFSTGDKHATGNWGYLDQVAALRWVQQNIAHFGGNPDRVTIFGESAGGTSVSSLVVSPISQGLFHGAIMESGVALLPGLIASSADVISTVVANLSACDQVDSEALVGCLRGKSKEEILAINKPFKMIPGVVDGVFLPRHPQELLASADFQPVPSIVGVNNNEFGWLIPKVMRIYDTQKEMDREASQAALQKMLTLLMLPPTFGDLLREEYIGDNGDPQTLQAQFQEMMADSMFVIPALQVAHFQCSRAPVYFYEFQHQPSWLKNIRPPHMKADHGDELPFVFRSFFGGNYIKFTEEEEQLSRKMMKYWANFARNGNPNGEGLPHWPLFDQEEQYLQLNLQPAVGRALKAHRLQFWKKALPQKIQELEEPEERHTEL
# Method: as §1
# [4] = test system: STAT3; assay: STAT3 Cignal Reporter Assay; format: cell-based; conditions: HEK293 cells, Hst 24h, IL-6 100 ng/ml 90 min
# Method: STAT3 transcription factor activity was measured using the Cignal STAT3 Reporter Assay Kit (Qiagen) according to the manufacturers’ instructions. HEK293 cells were transfected with the Renilla luciferase reporter plasmid. Twenty-four hours later, cells were treated with Hst for 24h, and were incubated with 100 ng/ml IL-6 for 90 min before lysed. Subsequently, Renilla luciferase activity was measured in a microplate reader. Relative transcription factor activity was calculated by dividing relative light units (RLU) of the STAT3-specific reporter and the negative control reporter.
# [5] = test system: CT-26 tumor; assay: Tumor growth in CT-26 tumor-bearing mice; format: in vivo
# Method: (§2) CT-26 cell line was used to make the tumor bearing mouse model by s.c. injection of 0.02mL cells in PBS at 5×10^7 cells/mL into the posterior mid-dorsum. Tumor volumes were estimated by the formula π/6×a^2×b, where a is the short and b is the long axis. When tumor volume reached roughly 100mm^3 (~10 days after implantation, defined as day 1), mice were randomly separated into 5 groups, 1). CPT-11 only group, receiving CPT-11 50mg/kg + vehicle 2). CPT-11+Hst 20mg/kg, 3). CPT-11+Hst 100mg/kg, 4). Hst 100mg/kg only, and 5) vehicle control group. CPT-11 was administrated by i.p. injection from day 1 to day 9 while Hst were administrated by oral gavage from day 1 to the end of study. An equivalent dosage of saline or CMC were administrated by i.p injection and oral gavage as vehicle, respectively. Mice were examined daily for signs of diarrhea (fecal staining of skin, lose watery stool) and bloody diarrhea (black sticky stool), as well as tumor growth. After sacrifice, jejunum, ileum and colon samples were dissected. Tissues were formalin-fixed and paraffin embedded for histological examination using 4μm-thick, 100μm step serial sections stained with H&E. A histologic score to evaluate inflammation, epithelial changes and mucosa architecture for each slide was calculated as described previously. […]
# [6] = test system: p-STAT3 (Tyr705); assay: Western blot of IL-6 induced p-STAT3 (Tyr705) in cancer cell lines; format: cell-based; conditions: various cancer cell lines, IL-6 100ng/ml 90 min
# Method: (§3) CT-26 (murine colon cancer), HCT-116 (human colon cancer), CRL-1739 (human stomach gastric cancer) and CRL-1682 (human pancreatic cancer) cell lines were purchased form ATCC. All cells were cultured in T-75 flasks (Falcon). All media were purchased from Life Technologies and supplemented with 10% fetal bovine serum (Sigma) and 1% penicillin-streptomycin (Fisher Scientific). CT-26 and CRL-1682 were cultured in RPMI-1640 medium. CRL-1739 and HCT-116 were cultured in DMEM medium. All cells were cultured in a 37° C, 5% CO2 incubator.
# RIPA buffer was purchased form Fisher Scientific. Xpert protease inhibitor cocktail solution 100X and Xpert phosphatase inhibitor cocktail solution 100X were purchased from GenDEPOT. 4–20% Mini-PROTEAN® TGX™ Gel and Trans-Blot® Turbo™ Mini Nitrocellulose Transfer Packs were purchased form Bio-Rad. Rabbit NF-κB and phospho-Stat3 (Tyr705) primary antibody, mouse β-Actin (8H10D10) primary antibody, and anti-mouse IgG HRP conjugated, anti-rabbit IgG HRP conjugated secondary antibody were purchased from Cell Signaling Technology.
# [7] = test system: small intestinal CES; assay: Ex vivo small intestinal CES assay (microsomes) after oral Hst; format: in vivo, mice; conditions: 20 mg/kg Hst oral, 4h after single dose, n=5
# Method: (§4) Single oral dose of 135 mg Hst in healthy adult subjects was rapidly absorbed and the concentration in plasma observed 20 min after dosing and reached a peak in 4h.
# (§5) Microsomes of the liver and small intestinal epithelium were prepared from animals with or without Hst treatment. Animals were killed by exsanguination at 4h after single oral dosing of Hst. Their liver and small intestines were removed immediately and cooled in cold physiological saline. Small intestine epithelium was scraped from the intestine with slide glass. Tissues were homogenized in 1.15% KCl on ice by a Teflon homogenizer, followed by centrifugation at 9,000×g for 10min at 4°C. The supernatant was re-centrifuged at 105,000×g for 60 min at 4°C, resulting in sedimentation of the microsome. The microsomal pellet was re-suspended in 1.15% KCl. To measure CES activity, microsomes (protein content: 1 mg/mL) were incubated with 4-NAP solution in phosphate-buffered saline at 37°C, and 50μL aliquots were sampled up to 20 min.
# [8] = test system: p-STAT3; assay: Immunohistochemistry of p-STAT3 in mouse tumors; format: in vivo, mice; conditions: CPT-11 + Hst
# Method: as §2
# [9] = test system: intestinal inflammation; assay: Intestinal inflammation in CPT-11 treated mice; format: in vivo
# Method: as §2
# [10] = test system: different cancer cell lines including CT-26; assay: Cell viability analysis on cancer cell lines; format: cell-based; conditions: Hst alone
# Method: as §3
# [11] = single oral dose of 135 mg Hst, healthy adult subjects, cited from earlier work
# [12] = test system: liver CES; assay: Ex vivo liver CES assay (microsomes) after oral Hst; format: in vivo, mice; conditions: 20 mg/kg Hst oral
# Method: as §4, §5
# [13] = test system: murine CT-26 tumor-bearing immuno-competent mice; assay: CPT-11 induced diarrhea in CT-26 tumor-bearing mice; format: in vivo; conditions: for mice with rapid recovery in body weight: 5 days after cessation of CPT-11; for mice that had to be euthanized: by day 12; for mice that never showed any signs of diarrhea: through end of study
# Method: We tested the effect of Hst (20 and 100 mg/kg) on murine CT-26 tumor-bearing immuno-competent mice with CPT-11 (50 mg/kg, roughly equivalent to 5 mg/kg typical human CPT-11 dose) intraperitoneally injected daily from day 1-9. Hst was given from day 1-15 and 30 min before CPT-11 administration on day 1-9. Changes of stool character were recorded twice daily to determine the severity of diarrhea. Fecal staining of skin or lose watery stool was determined as diarrhea but not severe, and only the black sticky stool (bloody diarrhea) was determined as severe diarrhea.
# CT-26 cell line was used to make the tumor bearing mouse model by s.c. injection of 0.02mL cells in PBS at 5×10^7 cells/mL into the posterior mid-dorsum. Tumor volumes were estimated by the formula π/6×a^2×b, where a is the short and b is the long axis. When tumor volume reached roughly 100mm^3 (~10 days after implantation, defined as day 1), mice were randomly separated into 5 groups, 1). CPT-11 only group, receiving CPT-11 50mg/kg + vehicle 2). CPT-11+Hst 20mg/kg, 3). CPT-11+Hst 100mg/kg, 4). Hst 100mg/kg only, and 5) vehicle control group. CPT-11 was administrated by i.p. injection from day 1 to day 9 while Hst were administrated by oral gavage from day 1 to the end of study. An equivalent dosage of saline or CMC were administrated by i.p injection and oral gavage as vehicle, respectively. Mice were examined daily for signs of diarrhea (fecal staining of skin, lose watery stool) and bloody diarrhea (black sticky stool), as well as tumor growth. After sacrifice, jejunum, ileum and colon samples were dissected. Tissues were formalin-fixed and paraffin embedded for histological examination using 4μm-thick, 100μm step serial sections stained with H&E. A histologic score to evaluate inflammation, epithelial changes and mucosa architecture for each slide was calculated as described previously. For immunohistochemical staining, sections were stained with antibodies against Ki67, β-catenin, F4/80, Ly-6B.2 and pSTAT3 (Tyr705) overnight at 4°C. Slides were then washed and stained with the appropriate secondary antibodies. Mounted slides were examined under Olympus BX61 upright microscopy (HMRI Advanced Cellular and Tissue Microscope Core Facility).
smiles,measurement,setting,value
CN(C)C(=O)C(CCN1CCC(O)(c2ccc(Cl)cc2)CC1)(c1ccccc1)c1ccccc1 [loperamide],incidence of grade 3-4 diarrheas,[1],28-40 % of treated patients
"O=C(/C=C/c1ccccc1)c1ccc(O)cc1O [2’, 4’-dihydroxychalcone]",CES1 inhibition,[2],no significant CES1 inhibition
same,selectivity for CES2 (over CES1),[3]; CES2 vs CES1,> 100 fold
same,IC50,"[3]; recombinant CES2, 4-NPA, 15 min, 25°C",1660 ± 690 nM
COc1ccc([C@@H]2CC(=O)c3c(O)cc(O)cc3O2)cc1O [hesperetin],concentration inhibiting IL-6 induced STAT3 reporter activity,[4],20 to 100 µM
same,CES1 inhibition,[2],no significant CES1 inhibition
same,effect on in vivo antitumor activity of CPT-11,"[5]; Hst 20 and 100 mg/kg + CPT-11, starting 5-6 days after Hst treatment",enhanced the in vivo antitumor activity of CPT-11
same,"tumor growth, Hst alone",[5]; Hst alone 100 mg/kg,mild inhibition on tumor growth
same,IL-6 induced p-STAT3 (Tyr705) expression,[6],significant down-regulation
same,small intestinal CES activity,[7],2.28±1.42 nmol/min/g protein
same,reduction of small intestinal CES activity,[7]; vs control,56%
same,p-STAT3 expression in the tumors,[8],remarkably suppressed
same,"infiltration of inflammatory cells (neutrophils, macrophages) and cytokine release (TNF-α, IL-6)",[9]; dose dependent,blocked
same,tissue expression of NF-κB,[9]; mouse small intestine,significantly down-regulated
same,cytotoxicity in vitro,[10],did not show any potent cytotoxicity effects
same,time after dosing at which concentration in plasma was observed,[11],20 min
same,time to peak plasma concentration,[11],4 h
same,Cmax,[11]; read-out: mean peak plasma concentration (Cmax),2730 ± 1350 nM
same,liver CES activity,"[12]; 4h after single dose, n=5",8.89±0.74 nmol/min/g protein
same,change of liver CES activity,[12]; vs control,did not have an obvious change
same,mice with severe diarrhea,"[13]; CPT-11 + Hst 20 mg/kg oral, day 11",2 out of 10
same,mice with rapid recovery in body weight,[13]; CPT-11 + Hst 20 mg/kg,20%
same,mice that had to be euthanized,[13]; CPT-11 + Hst 20 mg/kg,40%
same,body weight lost on average,"[13]; CPT-11 + Hst 20 mg/kg, day 11",20%
same,mice that never showed any signs of diarrhea,[13]; CPT-11 + Hst 20 mg/kg,20%
same,mice with severe diarrhea,"[13]; CPT-11 + Hst 100 mg/kg oral, until day 12",2 out of 10
same,mice with rapid recovery in body weight,[13]; CPT-11 + Hst 100 mg/kg,20%
same,mice that had to be euthanized,[13]; CPT-11 + Hst 100 mg/kg,20%
same,body weight lost on average,"[13]; CPT-11 + Hst 100 mg/kg, day 11",17%
same,mice that never showed any signs of diarrhea,[13]; CPT-11 + Hst 100 mg/kg,30%
same,severe diarrhea prohibited,"[13]; oral Hst, CPT-11 administered tumor-bearing mice",80%

# Reference: PMC6021345 (Oncotarget, 2018)
